Results taken from patent publication US20060270631A1, “Methods for the treatment and prevention of angiogenic diseases” (priority 2005, published 2006).

Assays:
endogenous SK = test: VEGF-stimulated SK activity in bovine RECs; type: cell-based; conditions: VEGF 50 ng/mL, 12 hours, serum-starved bovine RECs
Description: FIG. 5. Effects of Compound II on VEGF-stimulated SK activity in RECs. Bovine RECs were serum-starved for 24 hours and then left untreated or incubated with VEGF (50 ng/mL) in the presence of DMS (D) or the indicated concentration (in μM) of Compound II for 12 hours. [^3H]Sphingosine was then added to the cells and its conversion to [^3H]S1P was determined. Values represent the mean±SD of duplicate samples in a typical experiment.
Cellular S1P formation assay. Cells were grown to confluency in 24-well tissue culture plates and serum-starved for 24 hours as described above. Cells were then treated with 1% DMSO (as the drug vehicle), 20 μM dimethylsphingosine, or the indicated concentration of an SK inhibitor for 4 hours. The cells were then incubated with [^3H]sphingosine for 15 minutes, and the formation of [^3H]S1P was measured as previously described (French et al., Cancer Res 63: 5962 (2003)). In some assays, the cells were serum-starved for 24 hours and then treated with VEGF (50 ng/mL) alone or in the presence of an SK inhibitor for an additional 12 hours. [^3 H]Sphingosine was then added for 15 minutes, and its conversion to [^3H]S1P was measured as indicated above.
The effects of VEGF on SK activity in bovine RECs using the same cell-based assay as above, except that serum was removed from the cultures 24 hours before the addition of the SK inhibitor and VEGF were tested. […]

phosphorylated ERK1/2 = test: Western analysis of phosphorylated ERK1/2 in human RECs; type: cell-based
Description: Western Blotting. Protein concentrations were determined using the fluorescamine assay (Bohlen et al., Arch Biochem Biophys 155: 213 (1973)) with bovine serum albumin as the standard. Samples were normalized for equal amounts of protein per lane (100 μg), separated by sodium dodecylsulfate-polyacrylamide gel electrophoresis and electrotransferred to nitrocellulose membranes. For SK analyses, membranes were blocked with 5% nonfat milk in Tris-buffered saline with Tween 20 and probed with an anti-SK rabbit polyclonal antibody at a 1:50 dilution, washed and incubated with […] antibodies conjugated to horseradish peroxidase (1 hr in 3% nonfat milk). The blots were then washed 4 times for 5 minutes at room temperature, developed with SuperSignal development reagents (Pierce Biotechnology, Inc., Rockford, Ill.) and exposed to Kodak XAR film. […]
Western analyses were conducted to evaluate the effects of Compound II on signaling proteins known to be regulated in endothelial cells by VEGF or TNFα. […] Cell lysates from cells treated with VEGF for 15 minutes were then analyzed for levels of phosphorylated ERK1/2 as a measure of signaling through the Ras-mediated proliferation pathway. Samples from cells treated with TNFα were analyzed for activation of NFκB, i.e. phosphoNFκB, and the down-stream proteins, cyclooxygenase-2 (Cox-2), E-selectin and VCAM-1. […]

With `Oc1ccc(Nc2nc(-c3ccc(Cl)cc3)cs2)cc1` [Compound II] the “concentration completely inhibiting the SK activity response to VEGF” value (endogenous SK) was at least 1.3 µM, the “VEGF-promoted phosphorylation of ERK1/2” value (phosphorylated ERK1/2; VEGF 50 ng/mL, 15 minutes) was “completely abrogated” and the “residual pERK1/2 in serum-starved cells” value (phosphorylated ERK1/2; human RECs, no VEGF) was “eliminated”.
